Data taken from article PMC4718068 (Translation, 2013).

Experiments:
EF-G [1] = molecular target: EF-G (Escherichia coli, UniProt P0A6M8); test: equilibrium titration, Trp fluorescence; type: binding
EF-G [2] = molecular target: EF-G (Escherichia coli, UniProt P0A6M8, H92A); test: equilibrium titration, Trp fluorescence; type: binding
[3] = molecular target: Ribosomes from E. coli MRE 600 (E. coli MRE 600) (UniProt P0AG67); test: stopped-flow fluorescence of mant-nucleotide excited by FRET from Trp of EF-G

EF-G (Escherichia coli, UniProt P0A6M8), sequence (P0A6M8 2-704): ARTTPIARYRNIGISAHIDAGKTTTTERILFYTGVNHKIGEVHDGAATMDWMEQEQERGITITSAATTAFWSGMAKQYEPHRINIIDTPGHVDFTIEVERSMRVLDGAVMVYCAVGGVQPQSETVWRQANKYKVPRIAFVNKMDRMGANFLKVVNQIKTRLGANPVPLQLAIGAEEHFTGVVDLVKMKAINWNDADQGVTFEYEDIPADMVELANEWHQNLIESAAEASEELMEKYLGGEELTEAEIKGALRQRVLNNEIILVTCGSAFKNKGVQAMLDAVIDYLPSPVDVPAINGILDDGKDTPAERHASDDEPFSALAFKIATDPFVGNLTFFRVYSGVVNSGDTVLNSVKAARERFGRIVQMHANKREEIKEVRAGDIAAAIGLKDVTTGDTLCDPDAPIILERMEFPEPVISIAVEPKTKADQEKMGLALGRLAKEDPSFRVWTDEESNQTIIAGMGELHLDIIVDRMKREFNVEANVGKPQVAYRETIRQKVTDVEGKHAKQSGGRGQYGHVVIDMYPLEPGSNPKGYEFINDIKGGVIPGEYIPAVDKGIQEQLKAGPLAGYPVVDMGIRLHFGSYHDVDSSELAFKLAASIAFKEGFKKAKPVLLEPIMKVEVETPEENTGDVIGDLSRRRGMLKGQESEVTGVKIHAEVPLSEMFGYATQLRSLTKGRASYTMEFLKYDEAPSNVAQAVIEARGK
EF-G (Escherichia coli, UniProt P0A6M8, H92A), sequence (P0A6M8 2-704 H92A): as the sequence (P0A6M8 2-704) above, with H91A counted along it

Row | Molecule | Kd (EF-G [1]) | Kd (EF-G [2]) | rate of formation of the ribosome–EF-G-mant-GTP complex [3]
1 | Nc1nc2c(ncn2[C@@H]2O[C@H](COP(=O)(O)OP(=O)(O)OP(=O)(O)O)[C@@H](O)[C@H]2O)c(=O)[nH]1 [GTP] | 1000 to 2000 nM | 1000 to 2000 nM | –
2 | EF-G(H91A) (enzyme) | – | – | 1 s⁻¹
